What was measured:
[1] = biological target: T1, Poly [ADP-ribose] polymerase tankyrase-2 (Homo sapiens, UniProt Q9H2K2); test: Inhibition of human TNKS2 by fluorescence analysis
T1 sequence (Q9H2K2 whole entry): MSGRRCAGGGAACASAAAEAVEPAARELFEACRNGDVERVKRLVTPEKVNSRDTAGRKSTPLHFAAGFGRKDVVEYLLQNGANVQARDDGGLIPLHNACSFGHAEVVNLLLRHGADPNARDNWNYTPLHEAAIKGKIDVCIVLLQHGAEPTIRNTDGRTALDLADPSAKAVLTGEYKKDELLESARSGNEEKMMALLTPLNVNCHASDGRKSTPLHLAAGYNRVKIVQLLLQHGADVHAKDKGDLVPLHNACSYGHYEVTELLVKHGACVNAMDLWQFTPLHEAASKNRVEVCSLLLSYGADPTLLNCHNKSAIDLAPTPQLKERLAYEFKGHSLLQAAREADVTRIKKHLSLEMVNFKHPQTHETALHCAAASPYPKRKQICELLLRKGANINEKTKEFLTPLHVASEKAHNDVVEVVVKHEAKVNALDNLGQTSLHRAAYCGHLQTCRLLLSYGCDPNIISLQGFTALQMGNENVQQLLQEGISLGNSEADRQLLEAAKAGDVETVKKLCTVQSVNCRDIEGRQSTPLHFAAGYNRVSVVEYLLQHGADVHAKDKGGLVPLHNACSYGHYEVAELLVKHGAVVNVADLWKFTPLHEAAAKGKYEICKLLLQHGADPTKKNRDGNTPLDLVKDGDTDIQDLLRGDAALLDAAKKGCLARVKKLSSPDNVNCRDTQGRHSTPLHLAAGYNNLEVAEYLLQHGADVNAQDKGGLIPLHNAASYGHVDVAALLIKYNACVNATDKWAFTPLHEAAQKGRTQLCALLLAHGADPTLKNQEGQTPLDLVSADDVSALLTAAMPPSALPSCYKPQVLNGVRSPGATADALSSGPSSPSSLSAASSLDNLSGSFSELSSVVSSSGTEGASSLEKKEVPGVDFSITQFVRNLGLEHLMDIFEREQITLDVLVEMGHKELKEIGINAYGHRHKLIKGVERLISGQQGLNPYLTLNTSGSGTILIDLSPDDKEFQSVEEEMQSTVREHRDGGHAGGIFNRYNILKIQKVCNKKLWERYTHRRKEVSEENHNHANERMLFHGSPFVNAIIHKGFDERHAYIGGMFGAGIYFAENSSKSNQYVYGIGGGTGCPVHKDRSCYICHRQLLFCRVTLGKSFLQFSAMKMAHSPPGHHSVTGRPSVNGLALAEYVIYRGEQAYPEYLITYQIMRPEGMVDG

[2] = biological target: T2, Protein mono-ADP-ribosyltransferase PARP10 (Homo sapiens, UniProt Q53GL7); test: Inhibition of human ARTD10 by fluorescence analysis
T2 sequence (Q53GL7 whole entry): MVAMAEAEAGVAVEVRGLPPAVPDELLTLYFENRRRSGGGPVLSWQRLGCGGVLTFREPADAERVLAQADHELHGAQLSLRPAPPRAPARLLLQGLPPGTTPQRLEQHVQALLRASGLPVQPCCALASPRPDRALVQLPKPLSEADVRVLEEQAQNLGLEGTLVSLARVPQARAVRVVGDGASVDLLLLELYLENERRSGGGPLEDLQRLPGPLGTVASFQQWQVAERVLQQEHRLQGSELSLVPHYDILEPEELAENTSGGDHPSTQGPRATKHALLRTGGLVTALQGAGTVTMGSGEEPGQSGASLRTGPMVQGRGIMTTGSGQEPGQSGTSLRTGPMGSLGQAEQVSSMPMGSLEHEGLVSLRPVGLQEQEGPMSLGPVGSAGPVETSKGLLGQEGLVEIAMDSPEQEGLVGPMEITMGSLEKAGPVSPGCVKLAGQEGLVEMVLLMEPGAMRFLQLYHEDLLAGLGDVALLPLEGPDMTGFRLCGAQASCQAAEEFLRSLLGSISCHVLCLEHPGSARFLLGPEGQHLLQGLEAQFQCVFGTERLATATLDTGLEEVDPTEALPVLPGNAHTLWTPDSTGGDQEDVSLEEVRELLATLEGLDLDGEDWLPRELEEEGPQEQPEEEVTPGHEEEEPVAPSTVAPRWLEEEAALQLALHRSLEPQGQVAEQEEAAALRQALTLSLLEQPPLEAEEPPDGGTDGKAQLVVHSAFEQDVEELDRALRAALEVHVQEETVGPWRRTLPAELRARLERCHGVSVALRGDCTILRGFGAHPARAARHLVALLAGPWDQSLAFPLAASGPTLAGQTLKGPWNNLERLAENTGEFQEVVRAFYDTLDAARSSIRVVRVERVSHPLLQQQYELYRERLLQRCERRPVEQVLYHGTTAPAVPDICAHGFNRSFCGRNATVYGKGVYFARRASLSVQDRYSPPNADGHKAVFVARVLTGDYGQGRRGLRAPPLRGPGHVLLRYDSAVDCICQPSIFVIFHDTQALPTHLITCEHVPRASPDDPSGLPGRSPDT

COc1ccc(C2(CNC(=O)c3ccc(NC(=O)c4ccco4)cc3Cl)CCOCC2)cc1
IC50 ([1]; read-out: IC50): 2150 nM
IC50 ([1]; read-out: pIC50 (converted)): 2140 nM
IC50 [2]: > 10 µM

— ChEMBL document CHEMBL3751785, “Development and structural analysis of adenosine site binding tankyrase inhibitors” (Bioorg Med Chem Lett, 2016)
